What all share (type): functional, organism-based
One assay deals with Leishmania amazonensis. The assay can be described thus: Antileishmanial activity against Leishmania amazonensis promastigotes after 72 hrs by EGFP-reporter gene based fluorescence assay. Background: A reporter such as luciferase makes a cellular process visible.
For another assay, the system named is Trypanosoma congolense. Nature of the assay: Antitrypanosomal activity against Trypanosoma congolense IL3000 incubated for 48 hrs measured after 4 hrs.
The subject of the next assay is Leishmania donovani. Nature of the assay: Antileishmanial activity against Leishmania donovani MHOM/NP/03/D10 promastigotes after 72 hrs by EGFP-reporter gene based fluorescence assay. The conditions noted are these: MHOM/NP/03/D10, 72 h.

Regarding `CC(=O)O/C=C1\CCC/C(C=O)=C\C[C@@H]2C(C(=O)CC=C(C)C)=CO[C@H](OC(C)=O)[C@@H]12`, the IC50 in the assay with Leishmania amazonensis came out at 88 nM; in the assay on Trypanosoma congolense, 250 nM.

In turn, `CO[C@H]1OC=C(C(=O)OC(C)C)[C@H]2C/C=C(/C=O)CCCC(=O)[C@H]12` returned an IC50 in the assay on Leishmania donovani of 2400 nM.

What is called IC50 is the concentration needed to halve the response being measured. Read a low IC50 as greater potency in that assay.

The record behind these values is ChEMBL document CHEMBL4425181, “Synthesis and antileishmanial activity of the core structure of cristaxenicin A” (Bioorg Med Chem Lett, 2016).
